{"source": "patent US20080312336A1", "about": "“Preventive and/or Therapeutic Agent for Diabetic Vascular Disorder and Respiratory Disorder” (priority 2005, published 2008)", "key": {"[1]": {"test_system": "tracheal smooth muscles from the STZ-induced diabetic rat model", "test": "Carbachol-induced contraction of isolated tracheal smooth muscle from STZ-induced diabetic rats after four weeks of dosing", "assay_type": "in vivo, SD rats", "details": "for effective dose for inducing 50% muscle contraction (ED50): ED50 of carbachol; for effective dose for inducing 50% muscle contraction (ED50) / maximum muscle contractile force (Emax): mean±SD, n=6; for maximum muscle contractile force (Emax): carbachol", "experimental": "Eight-week-old male SD rats were divided into four groups, three of which were intraperitoneally administered with 50 mg/kg of streptozotocin (hereafter, also referred to as STZ) to induce diabetes. Of this diabetic model, two groups were used as the test substance-administered groups, and were intraperitoneally administered with 2 mg/kg or 8 mg/kg of the compound, 3-(15-hydroxypentadecyl)-2,4,4-trimethyl-2-cyclohexen-1-one (hereunder, referred to as “compound 24”) synthesized in Preparation Example 24, once daily for four weeks continuously. The diabetic model which was not administered with “compound 24” was used as the control group, and rats administered with neither STZ nor “compound 24” were used as the non-treated group.\nAfter four weeks from the start of administration, tracheae were isolated to prepare specimens (mucosal epithelium (+) specimens). The mucosal epithelia were further removed from these specimens to form mucosal epithelium (−) specimens. These specimens were suspended in an organ bath, and the contractile response to cumulative administration of carbachol (CAS Registry No.: 51-83-2) was observed. The muscle contractile force was measured with various cumulative concentrations of carbachol within the range of 10^−8.0 to 10^−4.5 M, to obtain the maximum muscle contractile force (Emax (g/mg tissue)) and the effective dose for inducing 50% muscle contraction (ED50 (M))."}, "[2]": {"test_system": "vascular smooth muscles from the STZ-induced diabetic rat model", "test": "U-46619-induced contraction of isolated thoracic aorta rings from STZ-induced diabetic rats after four weeks of dosing", "assay_type": "in vivo, SD rats", "design": "effective dose for inducing 50% muscle contraction (ED50): unit not given here", "details": "for effective dose for inducing 50% muscle contraction (ED50): ED50 of U-46619", "experimental": "Eight-week-old male SD rats were divided into four groups, three of which were intraperitoneally administered with 50 mg/kg of streptozotocin (hereafter, also referred to as STZ) to induce diabetes. Of this diabetic model, two groups were used as the test substance-administered groups, and were intraperitoneally administered with 2 mg/kg or 8 mg/kg of “compound 24” synthesized in Preparation Example […] once daily for four weeks continuously. The diabetic model which was not administered with “compound 24” was used as the control group, and rats which were administered with neither STZ nor “compound 24” were used as the non-treated group.\nAfter four weeks from the start of administration, thoracic aorta were isolated to form ring specimens (endothelium (+) specimens) of about 2 mm in length. The vascular endothelia were further removed from these specimens to form endothelium (−) specimens. These specimens were suspended in an organ bath, and the contractile response to cumulative administration of 9,11-dideoxy-9α,11α-methanoepoxy-prosta-5Z,13E-dien-1-oic acid (CAS Registry No.: 56985-40-1, hereafter also referred to as U-46619), which is a thromboxane A2 derivative, was observed. The muscle contractile force was measured with various cumulative concentrations of U-46619 within the range of 10^−9.0 to 10^−6.5 M, to obtain the maximum muscle contractile force (Emax (g/mg tissue)) and the effective dose for inducing 50% muscle contraction (ED50 (M))."}, "rat isolated trachea": {"test_system": "rat isolated trachea", "details": "streptozotocin-induced diabetic rats and normal rats; cited from earlier work"}, "[3]": {"test_system": "tracheal muscles isolated from streptozotocin-induced diabetic rats", "details": "cited from earlier work"}, "[4]": {"test_system": "tracheal specimens contracted with carbachol", "details": "cited from earlier work; for relaxation of specimens contracted with carbachol: carbachol 10^−6 mol/l; for response of diabetic rat specimens compared with control animals: specimens six weeks after 65 mg/kg i.v. streptozotocin"}, "[5]": {"details": "mucosal epithelium (+) specimens, 2 mg/kg i.p. once daily for four weeks"}, "[6]": {"details": "mucosal epithelium (+) specimens, 8 mg/kg i.p. once daily for four weeks"}, "[7]": {"details": "mucosal epithelium (−) specimens, 2 mg/kg i.p. once daily for four weeks"}, "[8]": {"details": "mucosal epithelium (−) specimens, 8 mg/kg i.p. once daily for four weeks"}}, "data": [{"molecule": "CC1=C(CCCCCCCCCCCCCCCO)C(C)(C)CCC1=O", "note": "[Compound 24, 3-(15-hydroxypentadecyl)-2,4,4-trimethyl-2-cyclohexen-1-one]", "values": [{"measurement": "effect on ED50 decrease of carbachol-induced tracheal smooth muscle contraction", "setting": "[1]; 2 and 8 mg/kg, vs. control group", "result": "inhibited the ED50 decrease in a dose-dependent manner"}, {"measurement": "effective dose for inducing 50% muscle contraction (ED50)", "setting": "[1]; [5]", "result": "12.2 ± 2.3 ×10^−8 M"}, {"measurement": "effective dose for inducing 50% muscle contraction (ED50)", "setting": "[1]; [6]", "result": "17.2 ± 5.3 ×10^−8 M"}, {"measurement": "effective dose for inducing 50% muscle contraction (ED50)", "setting": "[1]; [7]", "result": "11.4 ± 3.1 ×10^−8 M"}, {"measurement": "effective dose for inducing 50% muscle contraction (ED50)", "setting": "[1]; [8]", "result": "13.3 ± 4.2 ×10^−8 M"}, {"measurement": "overall effect on tracheal smooth muscle contraction", "setting": "[1]; STZ-induced diabetic rats", "result": "tracheal smooth muscle contraction-improving tendency"}, {"measurement": "effect on Emax increase of carbachol-induced tracheal smooth muscle contraction", "setting": "[1]; both mucosal epithelium (+) and (−) specimens, 2 and 8 mg/kg, vs. control group", "result": "tended to suppress the Emax increase concentration-dependently"}, {"measurement": "maximum muscle contractile force (Emax)", "setting": "[1]; [5]", "result": "0.303 ± 0.047", "unit": "g/mg tissue"}, {"measurement": "maximum muscle contractile force (Emax)", "setting": "[1]; [6]", "result": "0.292 ± 0.029", "unit": "g/mg tissue"}, {"measurement": "maximum muscle contractile force (Emax)", "setting": "[1]; [7]", "result": "0.307 ± 0.036", "unit": "g/mg tissue"}, {"measurement": "maximum muscle contractile force (Emax)", "setting": "[1]; [8]", "result": "0.242 ± 0.019", "unit": "g/mg tissue"}, {"measurement": "effect on Emax increase, endothelium (−) specimens", "setting": "[2]; 2 mg/kg or 8 mg/kg, compared to the control group", "result": "significant inhibition of the Emax increase"}, {"measurement": "effect on Emax increase, endothelium (+) specimens", "setting": "[2]; 8 mg/kg, compared to the control group", "result": "significant inhibition of the Emax increase"}, {"measurement": "effective dose for inducing 50% muscle contraction (ED50)", "setting": "[2]; endothelium (+) specimens, 2 mg/kg i.p. once daily for four weeks, mean±SD, n=6", "result": "8.077 ± 0.037 ×10^−9"}, {"measurement": "effective dose for inducing 50% muscle contraction (ED50)", "setting": "[2]; endothelium (+) specimens, 8 mg/kg i.p. once daily for four weeks, mean±SD, n=6", "result": "8.102 ± 0.055 ×10^−9"}, {"measurement": "effective dose for inducing 50% muscle contraction (ED50)", "setting": "[2]; endothelium (−) specimens, 2 mg/kg i.p. once daily for four weeks, mean±SD, n=6", "result": "8.149 ± 0.030 ×10^−9"}, {"measurement": "effective dose for inducing 50% muscle contraction (ED50)", "setting": "[2]; endothelium (−) specimens, 8 mg/kg i.p. once daily for four weeks, mean±SD, n=6", "result": "8.194 ± 0.114 ×10^−9"}, {"measurement": "overall effect on vascular smooth muscle contraction", "setting": "[2]; STZ-induced diabetic rats", "result": "vascular smooth muscle contraction-inhibiting effect"}, {"measurement": "effect on ED50 of U-46619", "setting": "[2]; all groups", "result": "no difference in ED50 among the groups"}, {"measurement": "effect on Emax increase of U-46619-induced vascular smooth muscle contraction", "setting": "[2]; both endothelium (+) and (−) specimens, 2 and 8 mg/kg, vs. control group", "result": "inhibited the Emax increase in a dose-dependent manner"}, {"measurement": "maximum muscle contractile force (Emax)", "setting": "[2]; endothelium (+) specimens, U-46619, 2 mg/kg i.p. once daily for four weeks, mean±SD, n=6", "result": "0.576 ± 0.082", "unit": "g/mg tissue"}]}, {"molecule": "NCCCC(=O)O", "note": "[GABA, γ-aminobutyric acid]", "values": [{"measurement": "effect on tracheal contraction induced by electrical stimulation", "setting": "rat isolated trachea", "result": "inhibited"}]}, {"molecule": "COC(=O)[C@@H](N)CCCNC(=N)N[N+](=O)[O-]", "note": "[L-NAME, NG-nitro-L-arginine-methylester]", "values": [{"measurement": "effect on electrical stimulation-induced contraction", "setting": "[3]; normal rats and diabetic rats", "result": "enhanced the response in normal rats, but not in diabetic rats"}, {"measurement": "effect on acetylcholine-induced contraction", "setting": "[3]; tracheal muscles from streptozotocin-induced diabetic rats", "result": "not affected"}]}, {"molecule": "O=C1C=C(CCCCCCCCCCCO)CCC1", "note": "[Preparation Example 2, 3-(11-hydroxyundecyl)-2-cyclohexen-1-one]", "values": [{"measurement": "melting point", "result": "34 to 35", "unit": "°C"}]}, {"molecule": "O=C1C=C(CCCCCCCCCCCCO)CCC1", "note": "[Preparation Example 3, 3-(12-hydroxydodecyl)-2-cyclohexen-1-one]", "values": [{"measurement": "melting point", "result": "35 to 36", "unit": "°C"}]}, {"molecule": "O=C1C=C(CCCCCCCCCCCCCO)CCC1", "note": "[Preparation Example 4, 3-(13-hydroxytridecyl)-2-cyclohexen-1-one]", "values": [{"measurement": "melting point", "result": "42 to 43", "unit": "°C"}]}, {"molecule": "O=C1C=C(CCCCCCCCCCCCCCO)CCC1", "note": "[Preparation Example 5, 3-(14-hydroxytetradecyl)-2-cyclohexen-1-one]", "values": [{"measurement": "melting point", "result": "44 to 45", "unit": "°C"}]}, {"molecule": "Nc1cc(-c2ccncc2)c[nH]c1=O", "note": "[aminone]", "values": [{"measurement": "relaxation of specimens contracted with carbachol", "setting": "[4]", "result": "concentration-dependent relaxation"}, {"measurement": "response of diabetic rat specimens compared with control animals", "setting": "[4]", "result": "higher response"}]}, {"molecule": "COc1ccc(C2CNC(=O)C2)cc1OC1CCCC1", "note": "(centres unmarked) [rolipram]", "values": [{"measurement": "relaxation of specimens contracted with carbachol", "setting": "[4]", "result": "concentration-dependent relaxation"}, {"measurement": "concentration at which the effect was observed", "setting": "[4]; control animal specimens", "result": "observed at the lowest concentration"}, {"measurement": "response of diabetic rat specimens compared with control animals", "setting": "[4]", "result": "no significant difference"}]}, {"molecule": "Cn1c(=O)c2[nH]cnc2n(C)c1=O", "note": "[theophylline]", "values": [{"measurement": "relaxation of specimens contracted with carbachol", "setting": "[4]", "result": "concentration-dependent relaxation"}, {"measurement": "response of diabetic rat specimens compared with control animals", "setting": "[4]", "result": "no significant difference"}]}]}
